In PMC7265639, “Freshwater viral metagenome reveals novel and functional phage-borne antibiotic resistance genes” (Microbiome, 2020):
Converted amounts (≈) assume the structure as drawn.

Assays:
[1] = test system: T1, E. coli BL21 (DE3)-pET-28a(+)-HRVM-1; test: microbe, parasite or virus in culture; design: species or system Escherichia coli BL21 (DE3) transformants; agar dilution MIC on Mueller-Hinton agar with 1 mM IPTG; conditions: Escherichia coli, read-out: MIC (μg/mL) for E. coli strain / E. coli BL21 (DE3)-pET-28a(+)-HRVM-1
T1 construct: BL21 (DE3) pET-28a(+)/blaHRVM-1-His6 transformant expressing HRVM-1 metallo-beta-lactamase
Protocol: (§1) When cultures of the cloned E. coli BL21 (DE3) cells reached approximately 0.6 at OD600, 1 mM isopropyl β-D-1-thiogalactopyranoside was added to induce expression of the blaHRV-1 or blaHRVM-1 gene followed by culture at 16 °C for 16 h. Susceptibility to benzylpenicillin, ampicillin, piperacillin, ticarcillin, oxacillin, cloxacillin, cephalothin, cefoxitin, cefotaxime, ceftazidime, cefepime, aztreonam, meropenem, imipenem (Sigma-Aldrich), and ertapenem (Merck & Co., Inc, Kenilworth, NJ, USA) against cloned E. coli BL21 (DE3) was assessed using the agar dilution technique in Mueller-Hinton agar (Difco Laboratories Inc., Detroit, MI, USA) including 1 mM IPTG with an inoculum of 10^5 CFU per spot. The PCR products were double-digested with NdeI and XhoI for the HRV-1 and NcoI and XhoI for the HRVM-1, and the digested DNAs were cloned into corresponding restriction enzyme-digested pET-28a(+) or pET-30a(+) vectors (Novagen, Madison, WI, USA). Recombinant plasmids [pET-30a(+)/blaHRV-1-His6 and pET-28a(+)/blaHRVM-1-His6] were transformed into E. coli BL21 (DE3) (Invitrogen, Carlsbad, CA, USA).

[2] = test system: T2, E. coli BL21 (DE3)-pET-30a(+)-HRV-1; test: microbe, parasite or virus in culture; design: species or system Escherichia coli BL21 (DE3) transformants; agar dilution MIC on Mueller-Hinton agar with 1 mM IPTG; conditions: Escherichia coli, HRV1, read-out: MIC (μg/mL) for E. coli strain / E. coli BL21 (DE3)-pET-30a(+)-HRV-1
T2 construct: BL21 (DE3) pET-30a(+)/blaHRV-1-His6 transformant expressing HRV-1 beta-lactamase
Protocol: as §1

HRV-1 = test system: T3, HRV-1; test: UV spectrophotometric beta-lactam hydrolysis, steady-state kinetics; type: biochemical; conditions: 10 mM MES pH 6.8, 30 °C, 20 μg/mL BSA
T3 construct: gene blaHRV-1; expressed in E. coli BL21(DE3) from pET-30a(+)/blaHRV-1-His6 (NdeI/XhoI); His6 tag removal by enterokinase stated; purified

HRVM-1 = test system: T4, HRVM-1; test: as above; type: biochemical; conditions: 50 mM MES pH 7.0, 100 μM ZnCl2, 100 μg/mL BSA, 30 °C
T4 construct: gene blaHRVM-1; expressed in E. coli BL21(DE3) from pET-28a(+)/blaHRVM-1-His6 (NcoI/XhoI); His6 tag removal by enterokinase stated; purified
Text: UV spectrophotometric beta-lactam hydrolysis, steady-state kinetics on HRVM-1 | the kcat/km of HRVM-1 for imipenem

Compound | MIC [1] [µg/mL] | MIC [2] [µg/mL] | Km (HRV-1) [µM] | Km (HRVM-1) [µM]
CC1(C)S[C@@H]2[C@H](NC(=O)[C@H](N)c3ccccc3)C(=O)N2[C@H]1C(=O)O [Ampicillin] | 32 (≈ 91.6 µM) | 64 (≈ 183 µM) |  | 
C[C@H]1[C@H](NC(=O)/C(=N\OC(C)(C)C(=O)O)c2csc(N)n2)C(=O)N1S(=O)(=O)O [Aztreonam] | 8 (≈ 18.4 µM) | 8 (≈ 18.4 µM) |  | 
CC1(C)S[C@@H]2[C@H](NC(=O)Cc3ccccc3)C(=O)N2[C@H]1C(=O)O [Benzylpenicillin] | 256 (≈ 766 µM) | 512 (≈ 1530 µM) |  | 
CO/N=C(\C(=O)N[C@@H]1C(=O)N2C(C(=O)[O-])=C(C[N+]3(C)CCCC3)CS[C@H]12)c1csc(N)n1 [Cefepime] | 4 (≈ 8.32 µM) | 4 (≈ 8.32 µM) |  | 
CO[C@@]1(NC(=O)Cc2cccs2)C(=O)N2C(C(=O)O)=C(COC(N)=O)CS[C@@H]21 [Cefoxitin] | 4 (≈ 9.36 µM) | 4 (≈ 9.36 µM) |  | 
CC(=O)OCC1=C(C(=O)O)N2C(=O)[C@@H](NC(=O)Cc3cccs3)[C@H]2SC1 [Cephalothin] | 32 (≈ 80.7 µM) | 32 (≈ 80.7 µM) |  | 
Cc1onc(-c2ccccc2Cl)c1C(=O)N[C@@H]1C(=O)N2[C@@H]1SC(C)(C)[C@@H]2C(=O)O [Cloxacillin] | 128 (≈ 294 µM) | 256 (≈ 587 µM) |  | 
C[C@@H](O)[C@H]1C(=O)N2C(C(=O)O)=C(S[C@@H]3CN[C@H](C(=O)Nc4cccc(C(=O)O)c4)C3)[C@H](C)[C@H]12 [Ertapenem] | 0.5 (≈ 1.05 µM) | 0.5 (≈ 1.05 µM) |  | 
C[C@@H](O)[C@H]1C(=O)N2C(C(=O)O)=C(S[C@@H]3CN[C@H](C(=O)N(C)C)C3)[C@H](C)[C@H]12 [Meropenem] | 0.5 (≈ 1.3 µM) | 0.5 (≈ 1.3 µM) |  | 
Cc1onc(-c2ccccc2)c1C(=O)N[C@@H]1C(=O)N2[C@@H]1SC(C)(C)[C@@H]2C(=O)O [Oxacillin] | 128 (≈ 319 µM) | 256 (≈ 638 µM) |  | 
CCN1CCN(C(=O)N[C@@H](C(=O)N[C@@H]2C(=O)N3[C@@H]2SC(C)(C)[C@@H]3C(=O)O)c2ccccc2)C(=O)C1=O [Piperacillin] | 32 (≈ 61.8 µM) | 64 (≈ 124 µM) |  | 
CC1(C)S[C@@H]2[C@H](NC(=O)[C@H](C(=O)O)c3ccsc3)C(=O)N2[C@H]1C(=O)O [Ticarcillin] | 32 (≈ 83.2 µM) | 32 (≈ 83.2 µM) |  | 
CO/N=C(\C(=O)N[C@@H]1C(=O)N2C(C(=O)O)=C(COC(C)=O)CS[C@H]12)c1csc(N)n1 [cefotaxime] | 8 (≈ 17.6 µM) | 8 (≈ 17.6 µM) | 11.74 ± 0.01 | 
CC(C)(O/N=C(\C(=O)N[C@@H]1C(=O)N2C(C(=O)[O-])=C(C[n+]3ccccc3)CS[C@H]12)c1csc(N)n1)C(=O)O [ceftazidime] | 8 (≈ 14.6 µM) | 8 (≈ 14.6 µM) | 12.15 ± 0.02 | 
C[C@@H](O)[C@H]1C(=O)N2C(C(=O)O)=C(SCCN=CN)C[C@H]12 [imipenem] | 0.5 (≈ 1.67 µM) | 0.5 (≈ 1.67 µM) |  | 5.42 ± 0.01
